Assay results taken from ChEMBL document CHEMBL6182898, “Design, synthesis and bioevaluation of novel hydrazide derivatives as enhancers of immunotherapy and DNA-damage response in antitumor therapy” (Eur J Med Chem, 2025).

Columns and labels:
SK-OV-3 [1] = test: cells; assay type: functional; conditions: Homo sapiens, time 72 hrs
4T1 [2] = test: cells; assay type: functional; conditions: Mus musculus, time 72 hrs
HCT-116 [3] = test: cells; assay type: functional; conditions: Homo sapiens, time 72 hrs
B16-F10 [4] = test: cells; assay type: functional; conditions: Mus musculus, time 72 hrs
K562 [5] = test: cells; assay type: functional; conditions: Homo sapiens, time 72 hrs
4T1 [6] = test: Antiproliferative activity against mouse 4T1 cells incubated for 72 hrs by MTT assay; assay type: functional, cell-based; conditions: 4T1, 72 h
SK-OV-3 [7] = test: Antiproliferative activity against human SK-OV-3 cells incubated for 72 hrs by MTT assay; assay type: functional, cell-based; conditions: SK-OV-3, 72 h
HCT-116 [8] = test: Antiproliferative activity against human HCT-116 cells incubated for 72 hrs by MTT assay; assay type: functional, cell-based; conditions: HCT-116, 72 h
B16-F10 [9] = test: Antiproliferative activity against mouse B16-F10 cells incubated for 72 hrs by MTT assay; assay type: functional, cell-based; conditions: B16-F10, 72 h
K562 [10] = test: Antiproliferative activity against human K562 cells incubated for 72 hrs by CCK8 assay; assay type: functional, cell-based; conditions: K562, 72 h
[11] = Antiproliferative activity against human HK-2 cells incubated for 72 hrs by MTT assay
Histone deacetylase 1 = Histone deacetylase 1 (Homo sapiens, UniProt Q13547); test: Inhibition of HDAC1 (unknown origin)
Histone deacetylase 3 = Histone deacetylase 3 (Homo sapiens, UniProt O15379); test: Inhibition of HDAC3 (unknown origin)
[12] = target: T1, Protein deacetylase HDAC6 (Homo sapiens, UniProt Q9UBN7); test: Inhibition of HDAC6 (unknown origin)
T1 sequence (Q9UBN7 whole entry): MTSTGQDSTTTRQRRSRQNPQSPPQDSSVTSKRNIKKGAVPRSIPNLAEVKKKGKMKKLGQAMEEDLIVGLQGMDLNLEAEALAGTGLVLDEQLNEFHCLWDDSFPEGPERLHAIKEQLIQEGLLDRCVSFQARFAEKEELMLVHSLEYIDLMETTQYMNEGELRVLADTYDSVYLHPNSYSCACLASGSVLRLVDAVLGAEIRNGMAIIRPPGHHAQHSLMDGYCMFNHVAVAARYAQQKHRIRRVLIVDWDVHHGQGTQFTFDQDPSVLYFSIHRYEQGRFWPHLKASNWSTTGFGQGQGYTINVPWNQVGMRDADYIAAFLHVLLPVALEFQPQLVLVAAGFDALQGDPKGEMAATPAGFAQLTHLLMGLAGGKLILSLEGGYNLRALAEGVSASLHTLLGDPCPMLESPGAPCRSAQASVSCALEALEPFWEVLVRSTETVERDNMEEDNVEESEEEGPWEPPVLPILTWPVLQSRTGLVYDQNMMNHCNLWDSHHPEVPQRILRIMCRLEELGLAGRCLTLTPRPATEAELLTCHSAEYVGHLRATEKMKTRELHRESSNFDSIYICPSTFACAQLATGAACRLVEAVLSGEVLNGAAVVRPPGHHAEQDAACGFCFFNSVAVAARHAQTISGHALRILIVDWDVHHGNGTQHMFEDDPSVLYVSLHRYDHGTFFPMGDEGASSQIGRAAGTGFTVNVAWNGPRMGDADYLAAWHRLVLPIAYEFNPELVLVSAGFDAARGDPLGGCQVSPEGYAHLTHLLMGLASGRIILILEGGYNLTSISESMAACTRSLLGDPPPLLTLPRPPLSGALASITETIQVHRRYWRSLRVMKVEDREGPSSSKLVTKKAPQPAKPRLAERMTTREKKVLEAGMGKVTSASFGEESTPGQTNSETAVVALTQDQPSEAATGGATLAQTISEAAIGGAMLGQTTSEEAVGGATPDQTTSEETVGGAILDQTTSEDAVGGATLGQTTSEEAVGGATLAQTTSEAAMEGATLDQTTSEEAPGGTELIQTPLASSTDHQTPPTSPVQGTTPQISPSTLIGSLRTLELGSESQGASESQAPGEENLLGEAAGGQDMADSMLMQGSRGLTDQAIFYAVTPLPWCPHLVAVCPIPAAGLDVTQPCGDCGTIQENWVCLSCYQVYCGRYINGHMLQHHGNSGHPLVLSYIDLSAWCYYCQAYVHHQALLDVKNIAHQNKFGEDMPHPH

Histone deacetylase 8 = target: T2, Histone deacetylase 8 (Homo sapiens, UniProt Q9BY41); test: Inhibition of HDAC8 (unknown origin)
T2 sequence (Q9BY41 whole entry): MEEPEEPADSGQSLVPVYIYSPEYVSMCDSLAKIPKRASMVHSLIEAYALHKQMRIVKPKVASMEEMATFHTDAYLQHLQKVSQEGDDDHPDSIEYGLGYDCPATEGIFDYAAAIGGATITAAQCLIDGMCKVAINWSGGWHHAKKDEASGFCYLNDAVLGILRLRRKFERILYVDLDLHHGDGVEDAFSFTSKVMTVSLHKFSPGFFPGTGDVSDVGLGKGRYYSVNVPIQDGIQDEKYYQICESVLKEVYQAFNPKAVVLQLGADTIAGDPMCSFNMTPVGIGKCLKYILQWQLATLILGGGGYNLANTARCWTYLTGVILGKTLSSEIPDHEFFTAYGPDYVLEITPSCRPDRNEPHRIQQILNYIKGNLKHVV

Sequence of Histone deacetylase 1 (Q13547 whole entry): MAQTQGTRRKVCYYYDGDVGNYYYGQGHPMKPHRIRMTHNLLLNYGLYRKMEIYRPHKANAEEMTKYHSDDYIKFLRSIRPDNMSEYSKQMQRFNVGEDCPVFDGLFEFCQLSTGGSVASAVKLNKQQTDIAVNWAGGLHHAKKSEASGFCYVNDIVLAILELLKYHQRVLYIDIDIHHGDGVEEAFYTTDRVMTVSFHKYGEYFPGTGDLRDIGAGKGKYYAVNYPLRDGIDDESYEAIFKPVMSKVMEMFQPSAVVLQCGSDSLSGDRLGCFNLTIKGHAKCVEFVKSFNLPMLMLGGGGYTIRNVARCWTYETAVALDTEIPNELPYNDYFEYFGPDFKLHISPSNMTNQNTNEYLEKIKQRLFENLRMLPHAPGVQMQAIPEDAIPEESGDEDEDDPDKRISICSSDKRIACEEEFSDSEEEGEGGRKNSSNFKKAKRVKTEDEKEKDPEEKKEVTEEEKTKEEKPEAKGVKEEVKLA
Sequence of Histone deacetylase 3 (O15379 whole entry): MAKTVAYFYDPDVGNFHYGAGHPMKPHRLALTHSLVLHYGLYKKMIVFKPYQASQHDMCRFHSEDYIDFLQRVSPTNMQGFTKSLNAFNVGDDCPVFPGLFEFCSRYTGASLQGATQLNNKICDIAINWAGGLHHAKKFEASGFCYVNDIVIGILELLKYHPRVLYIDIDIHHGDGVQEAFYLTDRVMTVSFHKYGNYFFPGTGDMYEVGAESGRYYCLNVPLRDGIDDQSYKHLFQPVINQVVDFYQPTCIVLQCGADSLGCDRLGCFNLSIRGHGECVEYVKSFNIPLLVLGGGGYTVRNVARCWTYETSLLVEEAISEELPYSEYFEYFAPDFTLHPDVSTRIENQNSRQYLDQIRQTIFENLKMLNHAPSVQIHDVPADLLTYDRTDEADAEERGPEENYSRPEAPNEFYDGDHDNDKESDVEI

Row | IC50 (4T1 [6]) [µM] | IC50 (SK-OV-3 [7]) [µM] | IC50 (HCT-116 [8]) [µM] | IC50 (B16-F10 [9]) [µM] | IC50 (K562 [10]) [µM] | IC50 (Histone deacetylase 1) [µM] | IC50 (Histone deacetylase 3) [µM] | IC50 [12] [µM] | IC50 (Histone deacetylase 8) [µM] | Compound | inhibition at 10 µM (SK-OV-3 [1]) [%] | inhibition at 10 µM (4T1 [2]) [%] | inhibition at 10 µM (HCT-116 [3]) [%] | inhibition at 10 µM (B16-F10 [4]) [%] | inhibition at 10 µM (K562 [5]) [%] | IC50 at 72 h [11] [µM]
1 | 14.4 | 4.48 | 4.14 | 11.1 | 2.71 | 3.26 | 0.55 | > 10 | > 10 | CCCNNC(=O)CCCCCCNC(=O)c1cnc(-c2ccc3ccccc3c2)s1 | 81.5 | < 20 | 94.7 | 57.6 | < 50 | 10.8
2 | 12.9 | 7.9 | 4.77 | 4.74 | 5.65 | 0.89 | 0.73 | > 10 | > 10 | CCCNNC(=O)CCCCCCNC(=O)c1cnc(-c2ccc(F)cc2F)s1 | 82.1 | < 20 | 79.7 | 56 | 70.5 | 12.2
3 | 10.5 | 4.43 | 3.38 | 11.1 | 7.68 | > 5 | 1.6 | > 10 | > 10 | CCCNNC(=O)CCCCCNC(=O)c1cnc(-c2ccc(Oc3ccccc3)cc2)s1 | 68.6 | 33.8 | 82.6 | < 50 | 73.1 | 10.8

Row | Compound | IC50 (4T1 [6]) [µM] | IC50 (SK-OV-3 [7]) [µM] | IC50 (HCT-116 [8]) [µM] | IC50 (B16-F10 [9]) [µM] | IC50 (K562 [10]) [µM] | IC50 (Histone deacetylase 1) [µM] | IC50 (Histone deacetylase 3) [µM] | IC50 [12] [µM] | IC50 (Histone deacetylase 8) [µM] | inhibition at 10 µM (SK-OV-3 [1]) [%] | inhibition at 10 µM (4T1 [2]) [%] | inhibition at 10 µM (HCT-116 [3]) [%] | inhibition at 10 µM (B16-F10 [4]) [%] | inhibition at 10 µM (K562 [5]) [%] | IC50 at 72 h [11] [µM]
4 | CCCNNC(=O)c1ccc(NC(=O)c2cnc(-c3ccccc3C)s2)cc1 | 14.5 | 5.57 | 3.45 | 12 | 3.58 | 1.62 | 0.87 | > 10 | > 10 | 56.2 | 26.4 | 67.1 | < 50 | 73.2 | 11.9
